{
  "source": "patent US20150182456A1",
  "about": "“HYDROGEL VACCINE FORMULATIONS” (Sigmoid Pharma Limited, priority 2012, published 2015)",
  "tested_on": "Female C57/bl6 Mice",
  "assay": "V. Cholerae Experiment 1: immune response in fecal pellets",
  "assay_type": "in vivo",
  "conditions": "oral, 2.5×10^8 bacteria, 10 μg αGalCer, 3 rounds, ELISA",
  "data": [
    {"smiles": "CCCCCCCCCCCCCCCCCCCCCCCCCC(=O)N[C@@H](CO[C@H]1O[C@H](CO)[C@H](O)[C@H](O)[C@H]1O)[C@H](O)[C@H](O)CCCCCCCCCCCCCC", "note": "[αGalCer, α-galactosylceramide]", "values": [
      {"measurement": "anti Inaba-LPS IgA and IgG titres in fecal pellets", "value": "effective adjuvant"}
    ]}
  ]
}
